Measurements as given in US8859776B2, “Substituted piperidines that increase p53 activity and the uses thereof” (Merck Sharp & Dohme Corp., priority 2009, dated 2014).

Target: HDM2 protein (Homo sapiens, UniProt Q00987)
Assay: fluorescence polarization assay for HDM2 inhibitory activity
Assay type: binding
Conditions: read-out: FP (IC 50 uM)
Source text: The inventive compounds can readily be evaluated to determine activity at the HDM2 protein by known methods such as the fluorescence polarization screening assay that measures the inhibitory concentration that achieves 50% of maximal activity (FP IC50) and the dissociation constant for inhibitor binding (FP Ki). [Zhang et al., J. Analytical Biochemistry 331: 138-146 (2004)].

Sequence of HDM2 protein (Q00987 whole entry): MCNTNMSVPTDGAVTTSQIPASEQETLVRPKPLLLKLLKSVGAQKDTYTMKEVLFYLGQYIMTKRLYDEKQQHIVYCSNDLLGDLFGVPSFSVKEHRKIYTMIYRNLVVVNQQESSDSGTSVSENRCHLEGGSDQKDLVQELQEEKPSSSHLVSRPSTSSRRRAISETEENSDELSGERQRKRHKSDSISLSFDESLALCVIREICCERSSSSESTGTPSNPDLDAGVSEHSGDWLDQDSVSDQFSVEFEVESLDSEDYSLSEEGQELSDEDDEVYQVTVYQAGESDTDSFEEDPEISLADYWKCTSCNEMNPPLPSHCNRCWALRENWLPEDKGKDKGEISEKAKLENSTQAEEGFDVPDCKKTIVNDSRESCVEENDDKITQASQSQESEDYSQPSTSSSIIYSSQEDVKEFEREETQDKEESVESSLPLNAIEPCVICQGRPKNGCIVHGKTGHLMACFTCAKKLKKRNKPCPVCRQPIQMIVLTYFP

Compound | IC50 [µM]
CCC[C@H]1N(C(=O)c2cnccc2C(F)(F)F)CCC[C@@]1(Oc1csc(C(F)(F)F)c1)C(=O)N1CCC(c2ccccc2OCCCC(=O)NS(=O)(=O)C2CC2)CC1 [Compound A2] | 0.009
CCC[C@H]1N(C(=O)c2cnccc2C(F)(F)F)CCC[C@@]1(Oc1ccc(C(F)(F)F)cc1)C(=O)N1CCC(C#N)(c2ccccc2CCC(=O)O)CC1 [Compound A83] | 0.013
CCC[C@H]1N(C(=O)c2ncccc2C(F)(F)F)CCC[C@@]1(Oc1csc(C(F)(F)F)c1)C(=O)N1CCC(O)(c2ccccc2O[C@@H]2CC[C@](C)(C(=O)NS(C)(=O)=O)C2)CC1 [Compound A145] | 0.008

The remaining lines, values ahead:

IC50 [µM] | Compound
0.014 | CCC[C@H]1N(C(=O)c2cnccc2C(F)(F)F)CCC[C@@]1(Oc1csc(C(F)(F)F)c1)C(=O)N1CCC(C#N)(c2ccccc2OCCCCC(=O)O)CC1 [Compound A4]
0.019 | CCC[C@H]1N(C(=O)c2cnccc2C(F)(F)F)CCC[C@@]1(Oc1csc(C(F)(F)F)c1)C(=O)N1CCC(c2nn[nH]n2)(c2ccccc2OC)CC1 [Compound A54]
0.011 | CCC[C@H]1N(C(=O)c2ncccc2C(F)(F)F)CCC[C@@]1(Oc1csc(C(F)(F)F)c1)C(=O)N1CCC(O)(c2ccccc2OCCCP(=O)(O)O)CC1 [Compound A89, 3-(2-(4-hydroxy-1-((2R,3S)-2-propyl-1-(3-(trifluoromethyl)picolinoyl)-3-(5-(trifluoromethyl)thiophen-3-yloxy)piperidine-3-carbonyl)piperidin-4-yl)phenoxy)propylphosphonic acid]
0.011 | CCC[C@H]1N(C(=O)c2cnccc2C(F)(F)F)CCC[C@@]1(Oc1csc(C(F)(F)F)c1)C(=O)N1CCC(c2ccccc2CCc2nnn[nH]2)CC1 [Compound A133, (4-(2-(2-(1H-tetrazol-5-yl)ethyl)phenyl)piperidin-1-yl)((2R,3S)-2-propyl-1-(4-(trifluoromethyl)nicotinoyl)-3-(5-(trifluoromethyl)thiophen-3-yloxy)piperidin-3-yl)methanone]
